Results as given in paper PMC7777204, “Locking mixed-lineage kinase domain-like protein in its auto-inhibited state prevents necroptosis” (Proceedings of the National Academy of Sciences of the …, 2020).

Tests used:
[1] = target: T1, MLKL executioner domain (Homo sapiens, UniProt Q8NB16); test: NMR diffusion experiments (hydrodynamic radius); format: biochemical
T1 construct: 80 µM MLKL N-terminal executioner domain (residues 1 to 154) was used; GST (thrombin cleavage site) (cleaved yes)
T1 sequence (Q8NB16 1-154): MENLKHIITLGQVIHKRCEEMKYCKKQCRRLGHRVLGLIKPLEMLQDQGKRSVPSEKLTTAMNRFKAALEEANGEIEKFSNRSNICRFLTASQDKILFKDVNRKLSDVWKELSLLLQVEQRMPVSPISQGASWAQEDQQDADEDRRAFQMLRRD
Method: To further characterize the oligomerized MLKL executioner domain, NMR diffusion experiments were conducted directly succeeding the end of the real-time NMR series (orange dots in Fig. 5A). This was compared with a fresh sample of unliganded MLKL executioner domain (black dots in Fig. 5A).
In a next step, we conducted NMR diffusion experiments with NM concentrations above and below the critical micelle concentration of 6 mM, to find out if the increased hydrodynamic radius of the MLKL executioner domain is dependent on the presence of micelles. […] The presence of 500 µM IP6 and 500 µM Cpd 3 had no influence on the hydrodynamic radius of NM (SI Appendix, Fig. S12). […] Therefore, the oligomerization depends on micelles, and the observed species is most likely a micelle-integrated oligomeric MLKL executioner domain. […]
NMR diffusion experiments were recorded as pseudo two-dimensional experiments with varying gradient strength either as a ^15N-filtered NMR experiment ([42]) (recorded with ^15N-labeled protein). […]
where d is the diffusion constant. […] The hydrodynamic radius was calculated by using the determined diffusion constants of the component of interest (d) and dioxane (ddioxane) and the known hydrodynamic radius of dioxan (2.12 Å) ([23]) using Eq. 4. rH=2.12Å⋅ddioxane/d, [4] […]

[2] = system: U937 cells; test: U937 cytotox assay; format: cell-based; conditions: Homo sapiens, U-937, without huTNFα and zVAD-fmk, read-out: U937 TOX IC50
Method: MLKL antagonists were also evaluated in a necroptosis assay with U937 cells ([26]) (ATCC catalog no. CRL-1593.2). The assay procedure with U937 cells was as described for the Jurakt FADD^−/− necroptosis assay with the following modifications: 8,000 cells were seeded per well, and, in addition to the recombinant huTNFα, cells were also incubated in the presence of 10 µM (f.c.) carbobenzoxy-valyl-alanyl-aspartyl-[O-methyl]-fluoromethylketone (zVAD-fmk) (Enzo Life Sciences catalog no. ALX-260-020). Low controls (0% CTL) were defined as cells treated with 100 ng/mL recombinant huTNFα plus 10 µM zVAD-fmk.
MLKL antagonists were tested in cytotox assays by using Jurkat FADD^−/− and U937 cells according to the assay procedures described for the necroptosis assays, but without treatment with recombinant huTNFα and/or zVAD-fmk. High controls (100% CTL, no effect) were defined as cells treated with DMSO, and low controls (0% CTL) were defined as medium without cells (0% CTL, maximal effect).
All cellular assays were done for Cpd 1, Cpd 2, Cpd 3, Cpd 4, and Cpd 5 in duplicate and in quadruplet for NSA.

Oligomeric state of the MLKL executioner domain ([1]; 12 mM NM + 500 µM IP6 + 500 µM Cpd 3, after 2 d of incubation, 57 Å without compound): completely monomeric
Hydrodynamic radius of the MLKL executioner domain ([1]; complex with 500 µM Cpd 3, 12 mM NM + 50 µM IP6, after time course, 60 Å without Cpd 3, 19 Å unliganded): 30 Å
Compound: Cn1c(=O)c2c(nc(S(C)(=O)=O)n2C)n(CC#Cc2cccc(O)c2)c1=O [Cpd 3]
IC50 [2]: 25.5 µM
